Data: patent US9464129B2, “Neuronal exocytosis inhibiting peptides” (BCN PEPTIDES S.A., priority 2006, dated 2016)

Tested on: primary cultures of rat hippocampus neurons
Assay: release of [3H]-L-glutamate from primary cultures of rat hippocampus neurons (neuronal exocytosis)
Format: cell-based
Experimental: Assay of the Activity of the Irreversibly Chemically Modified Peptides Derived from the SNAP-25 Protein on the Neuronal Exocytosis of [^3H]-L-Glutamate
The exocytosis of this neurotransmitter in neuronal cultures can be obtained by means of electric depolarization of the cells. The primary cultures of rat embryonic hippocampus are prepared using conventional methods [Blanes-Mira C., Merino J. M., Valera E., Fernández-Ballester G., Gutiérrez L. M., Viniegra S., Pérez-Payá E. and Ferrer-Montiel A. “Small peptides patterned after the N-terminus domain of SNAP25 inhibit SNARE complex assembly and regulated exocytosis” J. Neurochem. 88, 124-135] and are maintained in culture for 14 days in an incubator at 37° C. and 5% CO2. The cultures are incubated with [^3H]-L-glutamine in order to load them with [^3H]-L-glutamate for 3 h at 37° C. The excess [^3H]-L-glutamine is subsequent washed off and they are incubated with 0.1 mM of the peptides to be studied for 1 h at 37° C. The [^3H]-L-glutamate is released by means of depolarization with 75 mM KCl and 2 mM CaCl2 buffered in physiological buffer for 10 min at 37° C. The culture medium is collected and the amount of [^3H]-L-glutamate is quantified in a beta radiation meter. The results are normalized with regard to the release of [^3H]-L-glutamate in the absence of the peptide and corrected from the basal release in the absence of calcium.

Substance: SEQ ID No.11: unmodified peptide derived from the amino acid sequence of the SNAP-25 protein, residues 12 to 17 (EEMQRR) (listed as Homo sapiens)
- concentration required to reach inhibition levels comparable to those of the irreversibly modified peptides (compared with modified peptides at 0.1 mM, in the range of 30 times greater): ~3 mM
- inhibition of the release of [3H]-L-glutamate (peptide 0.1 mM, 1 h at 37° C., depolarization with 75 mM KCl and 2 mM CaCl2, FIG. 1): 5%
